Measurements taken from patent publication US12612392B2, “Compound, pharmaceutical compositions containing same, synthesis method therefor and use thereof” (SHENZHEN ZHONGGE BIOLOGICAL TECHNOLOGY CO., LTD., priority 2022, dated 2026).

What was measured:
[1] = tested on: HEK293T/17-ATF4 uORF-Luc-Puro monoclonal cells; experiment: Cell activity test: ATF4 luciferase reporter, thapsigargin-induced stress; format: cell-based; conditions: Homo sapiens, HEK-293T; ATF4 reporter expression, 50 nM thapsigargin, 6 hours
Text: The ATF4 luciferase reporter plasmid consists of two parts, i.e., the 5′ untranslated region sequence of the ATF4 gene and the luciferase coding sequence. Specifically, the ATF4 5′ untranslated region sequence (NCBI database number BC022088.2) containing two upstream open reading frames (uORFs), and the firefly luciferase encoding gene were cloned into the pLVX-Puro vector (YouBio, VT1465). The lentivirus packaging plasmids were psPAX2 (YouBio, VT1444) and pMD2.G (YouBio, VT1443). HEK293T/17 cells were transfected with the above three plasmids simultaneously using X-tremeGENE 9 DNA transfection reagent, and after 48 hours, a culture medium containing lentivirus was collected. HEK293T/17 cells transduced with the virus were screened with 1 μg/mL puromycin, and then monoclonal cells were obtained by limiting dilution.
By using this cell line and the cold fluorescence readings, the translational regulation of ATF4 can be detected, and the activity of the eIF2B activator can be tested. The specific experimental process is as follows: 6000 HEK293T/17-ATF4 uORF-Luc-Puro monoclonal cells were plated in a 384-well plate and allowed to adhere overnight. The test compounds were dissolved in DMSO and added together with 50 nM thapsigargin to the cell culture medium and incubated for 6 hours, wherein the thapsigargin was used to cause cellular stress and upregulate the protein translation of ATF4. Six hours after the addition, the cells were lysed using the One-Glo Luciferase Assay Kit (Promega #E6120), and then the cold fluorescence values were read using the LUM program of the EnVision 2104 plate reader.
The ATF4 reporter expression % was calculated as follows:
[formula] • ave_vc: average signal value of negative control • ave_pc: average signal value of positive control • ave_sample: average signal value of sample
The dose-response curves were fitted, and the EC50 values were calculated.
The nonlinear regression log (inhibitor) vs. response—variable slope (four parameters) method of GraphPad 9 software was used to fit the corresponding relationship between the ATF4 reporter expression % and the compound concentration.
X-axis: log value of compound concentration; Y-axis: ATF4 reporter expression %; Top: evaluation of upper asymptote of curve; Bottom: evaluation of lower asymptote of curve; Hillslope: slope of the fitted curve.

[2] = Cell membrane permeability (A to B / B to A, efflux ratio); format: in vitro ADME
Experimental: The test compounds were diluted from 10 mM stock solutions to a concentration of 10 μM using the transport buffer (HBSS+BSA) and applied to the apical or basolateral side of the cell monolayer. After the incubation at 37° C., 5% CO2 and 95% relative humidity for 120 minutes, the permeability of the test compounds in the A to B direction or the B to A direction was tested in duplicate. In addition, the efflux ratio of each compound was determined. The test substances and reference substances were quantitatively analyzed by the LC-MS/MS method based on the analyte/IS peak area ratio.

Compound COC1CN(c2nnc(C3CCN(NC(=O)COc4ccc(Cl)c(F)c4)CC3)o2)C1 [Compound 1] has an EC50 [1] of 10 to 100 nM.
COC1CN(c2nnc(C3CCC(NC(=O)COc4ccc(Cl)c(F)c4)CC3)o2)C1 (stereo not drawn) [Compound 2] gave an EC50 [1] of 10 to 100 nM.
Compound O=C(COc1ccc(Cl)c(F)c1)NC12CCC(c3nnc(N4CC(OC(F)(F)F)C4)o3)(CC1)CC2 [Compound 3] has an EC50 [1] of 1 to 10 nM.
Work on O=C(COc1ccc(Cl)c(F)c1)NC12CCC(c3nnc(N4CC(OC(F)(F)F)C4)o3)(CC1)CC2O (stereo not drawn) [Compound 4] yielded an EC50 [1] of less than 1 nM.
Work on O=C(COc1ccc(Cl)c(F)c1)NN1CCC(c2nnc(N3CC(OC(F)(F)F)C3)o2)CC1 [Compound 7] yielded an EC50 [1] of less than 1 nM.
O=C(COc1ccc(Cl)c(F)c1)NC12CCC(c3nnc(N4CC5(C4)CC(F)(F)C5)o3)(CC1)CC2 [Compound 8] showed an EC50 [1] of 10 to 100 nM.
With CP(C)(=O)C1CN(c2nnc(C34CCC(NC(=O)COc5ccc(Cl)c(F)c5)(CC3)CC4)o2)C1 [Compound 9] the EC50 [1] was greater than 100 nM.
For O=C(COc1ccc(Cl)c(F)c1)NC12CCC(c3nnc(N4CC(OC(F)(F)C(F)(F)F)C4)o3)(CC1)CC2 [Compound 10], the EC50 [1] was 1 to 10 nM.
With O=C(COc1ccc(Cl)c(F)c1)N[C@H]1CC[C@H](c2nnc(NC3CC(C(F)(F)F)C3)o2)CC1 (stereo partly drawn) [Compound 11] the EC50 [1] was 10 to 100 nM.
In the case of Fc1cc(OCC(=S)N[C@H]2CC[C@H](c3nnc(N4CC(OC(F)(F)F)C4)o3)CC2)ccc1Cl [Compound 12], the EC50 [1] is reported as 1 to 10 nM.
With CN(c1nnc([C@H]2CC[C@H](NC(=O)COc3ccc(Cl)c(F)c3)CC2)o1)C1CC(C(F)(F)F)C1 (stereo partly drawn) [Compound 14] the EC50 [1] was 10 to 100 nM.
With O=C(COc1ccc(Cl)cc1)N[C@H]1CC[C@H](c2nnc(N3CC(OC(F)(F)F)C3)o2)CC1 [Compound 15] the EC50 [1] was less than 1 nM.
Compound O=C(COc1ccc(Cl)c(F)c1)N[C@@H]1CC[C@@H](c2nnc(N3CC(OC(F)(F)F)C3)o2)OC1 [Compound 16] has an EC50 [1] of 1 to 10 nM.
Work on O=C(CO[C@H]1C[C@@H](OC(F)(F)F)C1)N[C@H]1CC[C@H](c2nnc(N3CC(OC(F)(F)F)C3)o2)CC1 [Compound 17] yielded an EC50 [1] of 10 to 100 nM.
O=C(COc1ccc(Cl)cn1)N[C@H]1CC[C@H](c2nnc(N3CC(OC(F)(F)F)C3)o2)CC1 [Compound 18] showed an EC50 [1] of 10 to 100 nM.
Work on O=C(COc1ccc(Cl)c(F)c1)N[C@H]1CC[C@H](c2nnc(N3CC(OC(F)F)C3)o2)CC1 [Compound 19] yielded an EC50 [1] of 1 to 10 nM.
O=C(COc1ccc(F)cc1)N[C@H]1CC[C@H](c2nnc(N3CC(OC(F)(F)F)C3)o2)CC1 [Compound 21] showed an EC50 [1] of 10 to 100 nM.
Work on O=C(COc1ccccc1Cl)N[C@H]1CC[C@H](c2nnc(N3CC(OC(F)(F)F)C3)o2)CC1 [Compound 22] yielded an EC50 [1] greater than 100 nM.
With O=C(COc1cccc(Cl)c1)N[C@H]1CC[C@H](c2nnc(N3CC(OC(F)(F)F)C3)o2)CC1 [Compound 23] the EC50 [1] was 10 to 100 nM.
Compound O=C(COc1cccc(F)c1)N[C@H]1CC[C@H](c2nnc(N3CC(OC(F)(F)F)C3)o2)CC1 [Compound 24] has an EC50 [1] of 10 to 100 nM.
With O=C(COc1ccc(F)c(Cl)c1)N[C@H]1CC[C@H](c2nnc(N3CC(OC(F)(F)F)C3)o2)CC1 [Compound 25] the EC50 [1] was 1 to 10 nM.
With O=C(COc1ccc(Cl)c(Br)c1)N[C@H]1CC[C@H](c2nnc(N3CC(OC(F)(F)F)C3)o2)CC1 [Compound 26] the EC50 [1] was less than 1 nM.
O=C(COc1ccc(Cl)cc1Cl)N[C@H]1CC[C@H](c2nnc(N3CC(OC(F)(F)F)C3)o2)CC1 [Compound 27] showed an EC50 [1] of 10 to 100 nM.
With O=C(COc1ccc(Cl)c(Cl)c1)N[C@H]1CC[C@H](c2nnc(N3CC(OC(F)(F)F)C3)o2)CC1 [Compound 28] the EC50 [1] was less than 1 nM.
O=C(COc1ccccc1F)N[C@H]1CC[C@H](c2nnc(N3CC(OC(F)(F)F)C3)o2)CC1 [Compound 29] gave an EC50 [1] greater than 100 nM.
In the case of O=C(COc1ccc(F)cc1F)N[C@H]1CC[C@H](c2nnc(N3CC(OC(F)(F)F)C3)o2)CC1 [Compound 30], the EC50 [1] is reported as greater than 100 nM.
Compound O=C(COc1ccc(F)cc1Cl)N[C@H]1CC[C@H](c2nnc(N3CC(OC(F)(F)F)C3)o2)CC1 [Compound 31] has an EC50 [1] greater than 100 nM.
For O=C(COc1cccc(Cl)c1Cl)N[C@H]1CC[C@H](c2nnc(N3CC(OC(F)(F)F)C3)o2)CC1 [Compound 32], the EC50 [1] was greater than 100 nM.
For O=C(COc1ccc(Cl)cc1F)N[C@H]1CC[C@H](c2nnc(N3CC(OC(F)(F)F)C3)o2)CC1 [Compound 33], the EC50 [1] was 1 to 10 nM.
Work on O=C(COc1ccc(F)c(F)c1)N[C@H]1CC[C@H](c2nnc(N3CC(OC(F)(F)F)C3)o2)CC1 [Compound 34] yielded an EC50 [1] of 1 to 10 nM.
In the case of O=C(COc1ncc(Cl)cn1)N[C@H]1CC[C@H](c2nnc(N3CC(OC(F)(F)F)C3)o2)CC1 [Compound 35], the EC50 [1] is reported as greater than 100 nM.
For O=C(N[C@H]1CC[C@H](c2nnc(N3CC(OC(F)(F)F)C3)o2)CC1)c1nc(Cl)c[nH]1 [Compound 41], the EC50 [1] was greater than 100 nM.
Work on Cc1csc(C(=O)N[C@H]2CC[C@H](c3nnc(N4CC(OC(F)(F)F)C4)o3)CC2)n1 [Compound 42] yielded an EC50 [1] greater than 100 nM.
O=C(N[C@H]1CC[C@H](c2nnc(N3CC(OC(F)(F)F)C3)o2)CC1)c1cc(Cl)c[nH]1 [Compound 43] gave an EC50 [1] of 10 to 100 nM.
In the case of O=C(N[C@H]1CC[C@H](c2nnc(N3CC(OC(F)(F)F)C3)o2)CC1)c1ccc2cc(Cl)ccc2n1 [Compound 44], the EC50 [1] is reported as 1 to 10 nM.
Compound O=C(N[C@H]1CC[C@H](c2nnc(N3CC(OC(F)(F)F)C3)o2)CC1)c1cnc(C(F)F)cn1 [Compound 45] has an EC50 [1] greater than 100 nM.
Compound O=C(N[C@H]1CC[C@H](c2nnc(N3CC(OC(F)(F)F)C3)o2)CC1)c1ccc2c(c1)CCCO2 [Compound 46] has an EC50 [1] greater than 100 nM.
Compound O=C(COc1cc(F)c(Cl)c(F)c1)N[C@H]1CC[C@H](c2nnc(N3CC(OC(F)(F)F)C3)o2)CC1 [Compound 47] has an EC50 [1] of 1 to 10 nM.
In the case of O=C(COc1cc(F)c(Cl)cc1F)N[C@H]1CC[C@H](c2nnc(N3CC(OC(F)(F)F)C3)o2)CC1 [Compound 48], the EC50 [1] is reported as 1 to 10 nM.
Work on O=C(COc1cc(F)c(Cl)cc1Cl)N[C@H]1CC[C@H](c2nnc(N3CC(OC(F)(F)F)C3)o2)CC1 [Compound 49] yielded an EC50 [1] greater than 100 nM.
For O=C(COc1ccc(Cl)c(F)c1F)N[C@H]1CC[C@H](c2nnc(N3CC(OC(F)(F)F)C3)o2)CC1 [Compound 50], the EC50 [1] was 1 to 10 nM.
With C[C@@H]1[C@@H](OC(F)(F)F)CN1c1nnc([C@H]2CC[C@H](NC(=O)COc3ccc(Cl)c(F)c3)CC2)o1 [Compound 51-1] the EC50 [1] was 10 to 100 nM.
Work on C[C@@H]1[C@H](OC(F)(F)F)CN1c1nnc([C@H]2CC[C@H](NC(=O)COc3ccc(Cl)c(F)c3)CC2)o1 [Compound 51-2] yielded an EC50 [1] greater than 100 nM.
For Nc1cc(Cl)ccc1OCC(=O)N[C@H]1CC[C@H](c2nnc(N3CC(OC(F)(F)F)C3)o2)CC1 [Compound 52], the EC50 [1] was greater than 100 nM.
O=C(COc1ncc(C(F)(F)F)s1)N[C@H]1CC[C@H](c2nnc(N3CC(OC(F)(F)F)C3)o2)CC1 [Compound 53] showed an EC50 [1] greater than 100 nM.
Compound O=C(COc1ccc(Cl)c(F)c1)N[C@H]1CC[C@H](c2nnc(N3CC(OC(F)(F)F)C3)o2)C[C@H]1O [Compound 86] has an EC50 [1] of 1 to 10 nM.
O=C(CO[C@H]1CC[C@H](c2nnc(N3CC(OC(F)(F)F)C3)o2)CC1)Nc1ccc(Cl)c(F)c1 [Compound 90] gave an EC50 [1] of 1 to 10 nM.
For C[C@H]1O[C@@H](O[C@H]2[C@@H](O)C[C@H](O[C@H]3[C@@H](O)C[C@H](O[C@H]4CC[C@@]5(C)[C@H](CC[C@@H]6[C@@H]5C[C@@H](O)[C@]5(C)[C@@H](C7=CC(=O)OC7)CC[C@]65O)C4)O[C@@H]3C)O[C@@H]2C)C[C@H](O)[C@@H]1O [Digoxin, reference compound], the efflux ratio at 120 min, 10 µM [2] was 44.1.
